Measured values taken from patent publication US20160297830A1, “NOVEL COMPOUNDS USEFUL FOR THE TREATMENT OF BACTERIAL INFECTIOUS DISEASES” (GALAPAGOS NV, priority 2013, published 2016).
Converted amounts (≈) assume the structure as drawn. Where two headings read alike, the source gives them in different places.

Key:
S. aureus Sa1 ATCC 13709 = assay: microbe, parasite or virus in culture; type: cell-based; settings: Staphylococcus aureus
[1] = tested on: S. aureus Sa26 ATCC 25923; assay: Antibacterial activity assay (MIC), S. aureus Sa26; type: cell-based; settings: Staphylococcus aureus
S. aureus Sa4 NCTC 6571 = assay: Antibacterial activity assay (MIC), S. aureus Sa4; type: cell-based; settings: Staphylococcus aureus
[2] = tested on: S. aureus Sa2 clinical strain NCIMB 41953, MRSA; assay: microbe, parasite or virus in culture; type: cell-based; settings: Staphylococcus aureus, read-out: MIC Sa2
[3] = tested on: H. influenza Hi3 ATCC 31517; assay: organism not typed; type: cell-based; settings: read-out: MIC Hi3
[4] = tested on: H. influenza Hi10 clinical strain; assay: organism not typed; type: cell-based; settings: read-out: MIC Hi10
[5] = tested on: H. influenza Hi47 clinical strain, Ampicillin Resistant; assay: organism not typed; type: cell-based; settings: read-out: MIC Hi47
[6] = tested on: H. influenza Hi106 ATCC 51907; assay: organism not typed; type: cell-based; settings: read-out: MIC Hi106
E. coli Ec1 ATCC 25922 = assay: Antibacterial activity assay (MIC), E. coli Ec1; type: cell-based; settings: Escherichia coli
[7] = tested on: E. coli Ec50 efflux pump KO; assay: microbe, parasite or virus in culture; type: cell-based; settings: Escherichia coli, read-out: MIC Ec50 efflux pump KO
[8] = tested on: E. coli Ec113 efflux pump KO; assay: microbe, parasite or virus in culture; type: cell-based; settings: Escherichia coli, read-out: MIC Ec113 efflux pump KO
[9] = biological target: DNA Polymerase IIIα (DnaE) from Staphylococcus aureus (Staphylococcus aureus, UniProt Q6GG04); assay: biochemical
Chain of DNA Polymerase IIIα (DnaE) from Staphylococcus aureus (Q6GG04 1-1022): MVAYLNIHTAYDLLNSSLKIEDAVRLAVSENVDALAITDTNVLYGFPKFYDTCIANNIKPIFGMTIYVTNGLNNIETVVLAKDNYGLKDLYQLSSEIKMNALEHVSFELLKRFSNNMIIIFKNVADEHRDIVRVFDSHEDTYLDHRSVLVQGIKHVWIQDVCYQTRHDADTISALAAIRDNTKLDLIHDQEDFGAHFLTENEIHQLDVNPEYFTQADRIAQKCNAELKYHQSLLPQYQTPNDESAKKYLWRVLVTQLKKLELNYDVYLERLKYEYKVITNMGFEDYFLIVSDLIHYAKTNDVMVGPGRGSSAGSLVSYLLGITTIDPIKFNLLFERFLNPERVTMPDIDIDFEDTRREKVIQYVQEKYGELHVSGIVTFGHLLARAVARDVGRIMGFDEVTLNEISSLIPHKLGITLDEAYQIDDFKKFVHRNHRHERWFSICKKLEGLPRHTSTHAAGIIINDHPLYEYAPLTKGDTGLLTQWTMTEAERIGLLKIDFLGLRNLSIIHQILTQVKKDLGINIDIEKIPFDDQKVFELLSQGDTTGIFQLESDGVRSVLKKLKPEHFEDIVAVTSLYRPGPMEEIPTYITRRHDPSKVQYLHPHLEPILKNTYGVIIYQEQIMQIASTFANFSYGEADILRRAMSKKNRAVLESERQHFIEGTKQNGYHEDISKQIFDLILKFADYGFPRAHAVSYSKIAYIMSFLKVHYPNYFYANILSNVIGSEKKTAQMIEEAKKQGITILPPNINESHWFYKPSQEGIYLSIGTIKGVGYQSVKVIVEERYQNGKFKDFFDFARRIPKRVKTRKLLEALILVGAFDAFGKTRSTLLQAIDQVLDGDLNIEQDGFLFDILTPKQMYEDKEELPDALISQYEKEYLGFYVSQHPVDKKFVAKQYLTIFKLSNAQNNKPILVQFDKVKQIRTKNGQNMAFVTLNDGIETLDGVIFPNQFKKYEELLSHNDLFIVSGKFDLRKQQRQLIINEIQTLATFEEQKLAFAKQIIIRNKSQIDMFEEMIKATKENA

DNA III Polymerase E = DNA III Polymerase E (Escherichia coli, UniProt P10443); assay: In vitro activity against DNA III Polymerase E, E. coli; type: biochemical
Chain of DNA III Polymerase E (P10443 whole entry): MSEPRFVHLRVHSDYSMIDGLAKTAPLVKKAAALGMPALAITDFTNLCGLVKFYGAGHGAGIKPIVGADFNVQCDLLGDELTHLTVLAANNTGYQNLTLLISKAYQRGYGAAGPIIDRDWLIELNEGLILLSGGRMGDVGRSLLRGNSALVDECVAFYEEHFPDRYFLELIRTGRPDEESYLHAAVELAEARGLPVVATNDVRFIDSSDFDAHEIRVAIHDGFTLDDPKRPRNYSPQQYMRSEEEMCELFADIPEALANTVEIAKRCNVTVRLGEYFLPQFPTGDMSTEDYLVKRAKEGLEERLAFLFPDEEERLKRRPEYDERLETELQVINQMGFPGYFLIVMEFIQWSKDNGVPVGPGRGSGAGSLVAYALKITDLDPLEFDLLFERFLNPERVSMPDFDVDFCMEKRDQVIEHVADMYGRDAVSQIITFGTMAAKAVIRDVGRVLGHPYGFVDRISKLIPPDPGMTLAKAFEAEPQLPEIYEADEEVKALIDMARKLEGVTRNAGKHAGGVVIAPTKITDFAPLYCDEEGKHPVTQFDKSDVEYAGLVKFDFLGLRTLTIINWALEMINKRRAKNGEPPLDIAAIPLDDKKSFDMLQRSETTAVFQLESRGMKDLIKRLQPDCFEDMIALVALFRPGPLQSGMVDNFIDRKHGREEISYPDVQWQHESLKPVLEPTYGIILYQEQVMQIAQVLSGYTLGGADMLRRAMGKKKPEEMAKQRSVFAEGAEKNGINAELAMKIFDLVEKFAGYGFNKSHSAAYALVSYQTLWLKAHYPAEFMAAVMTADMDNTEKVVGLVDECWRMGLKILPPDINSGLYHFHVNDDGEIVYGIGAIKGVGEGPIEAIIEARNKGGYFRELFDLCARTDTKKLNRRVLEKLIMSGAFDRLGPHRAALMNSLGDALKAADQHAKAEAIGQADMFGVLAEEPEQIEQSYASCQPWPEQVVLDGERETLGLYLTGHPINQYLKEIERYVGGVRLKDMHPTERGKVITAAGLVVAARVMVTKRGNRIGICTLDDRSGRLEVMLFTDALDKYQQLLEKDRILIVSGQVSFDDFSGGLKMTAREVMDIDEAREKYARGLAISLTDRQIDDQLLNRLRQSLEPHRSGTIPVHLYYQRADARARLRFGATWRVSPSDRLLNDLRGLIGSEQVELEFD
Method: A radioactive filterplate assay was used to assess inhibitory activity of compounds on DNA Polymerase IIIα. Five μL of a dilution series of compound, starting from 100 μM highest concentration, 1/5 dilution, was added to the wells of a 96 well plate. Recombinant enzyme was diluted to 0.47 μg/mL in a buffer containing 20 mM Tris pH7.5, 8 mM DTT, 10 mM MgOAc, 0.05% CHAPS and 10 μL thereof was added to the compound dilutions. The reaction was started with the addition of 10 μL substrate in the same buffer, containing activated calf thymus DNA (Sigma, D4522), dATP, dGTP, dCTP, dTTP (Invitrogen) and [α-33P]-dTTP (Perkin Elmer, NEG605H001) at a concentration of 62.5 μg/mL, 50 nM and 7.5 μCi/mL respectively. The mixture was incubated at 30° C. for 120 minutes and terminated by addition of phosphoric acid. Samples were transferred to filter plates and incorporated radioactivity was measured by the Topcount. Data were converted to percent inhibition with respect to positive and negative controls. IC50 values were calculated using Graph Prism™ software.

[10] = ATCC25923, read-out: MIC Sa26 + 10% SH
[11] = ATCC25923, read-out: MIC Sa26 + 50% SH
[12] = DNA polymerase III, E. coli, read-out: IC50 semiquantitative scoring, E. coli
[13] = ATCC13709, S. aureus Sa1 ATCC 13709, sensitive strain, Mueller-Hinton Broth, 37° C., read-out: MIC Sa1
[14] = ATCC25923, read-out: MIC Sa26 + 10% SH, S. aureus Sa26 + 10% SH
[15] = ATCC25923, read-out: MIC Sa26 + 50% SH, S. aureus Sa26 + 50% SH
[16] = ATCC25923, S. aureus Sa26 ATCC 25923, sensitive strain, Mueller-Hinton Broth, 37° C., read-out: MIC Sa26
[17] = NCTC6571, S. aureus Sa4 NCTC 6571, sensitive strain, read-out: MIC Sa4
[18] = ATCC25922, E. coli Ec1 ATCC 25922, sensitive strain, read-out: MIC Ec1
[19] = DNA polymerase III, S. aureus, read-out: IC50 semiquantitative scoring, S. aureus

Structure (SMILES) | MIC (S. aureus Sa1 ATCC 13709; ATCC13709, read-out: MIC Sa1) [µg/mL] | MIC ([1]; ATCC25923, read-out: MIC Sa26) [µg/mL] | MIC [1, 10] [µg/mL] | MIC [1, 11] [µg/mL] | MIC (S. aureus Sa4 NCTC 6571; NCTC6571, read-out: MIC Sa4) [µg/mL] | MIC [2] [µg/mL] | MIC [3] [µg/mL] | MIC [4] [µg/mL] | MIC [5] [µg/mL] | MIC [6] [µg/mL] | MIC (E. coli Ec1 ATCC 25922; ATCC25922, read-out: MIC Ec1) [µg/mL] | MIC [7] [µg/mL] | MIC [8] [µg/mL] | IC50 [9] [µM] | IC50 (DNA III Polymerase E; [12]) [µM] | MIC (S. aureus Sa1 ATCC 13709; [13]) [µg/mL] | MIC [1, 14] [µg/mL] | MIC [1, 15] [µg/mL] | MIC [1, 16] [µg/mL] | IC50 [9, 19] [µM] | also measured
COC[C@@H]1[C@@H](O)[C@@H]2[C@H]3C=C[C@@H]4[C@@H](COC)C(=O)O[C@H]([C@H](O)COC)[C@H](C)/C=C(\C)[C@@]24O[C@H]3[C@@H]1OC(=O)c1cc(C)c[nH]1 [Compound 12, 8-O-4-Methyl-1H-pyrrole-2′-carbonylbranimycin] | 8 (≈ 13.6 µM) | 16 (≈ 27.1 µM) | 8 | 16 | 8 (≈ 13.6 µM) | 4 (≈ 6.78 µM) | > 64 | > 64 | 64 (≈ 109 µM) | 64 (≈ 109 µM) | > 64 | > 64 | 2 (≈ 3.39 µM) | 0.0017 to 1.7 | > 17 | – | – | – | – | – | –
COC[C@@H]1[C@@H](O)[C@@H]2[C@H]3C=C[C@@H]4[C@@H](COC)C(=O)O[C@H]([C@H](O)COC)[C@H](C)/C=C(\C)[C@@]24O[C@H]3[C@@H]1OC(=O)c1ccon1 [Compound 13, 8-O-Isoxazole-3′-carbonylbranimycin] | – | – | – | – | – | > 64 | > 64 | > 64 | 64 (≈ 111 µM) | > 64 | – | 64 (≈ 111 µM) | 8 (≈ 13.8 µM) | – | > 17.3 | > 64 | > 64 | > 64 | > 64 | 1.73 to 17.3 | MIC (S. aureus Sa4 NCTC 6571; [17]): 64 µg/mL (≈ 111 µM); MIC (E. coli Ec1 ATCC 25922; [18]): > 64 µg/mL
COC[C@@H]1[C@@H](O)[C@@H]2[C@H]3C=C[C@@H]4[C@@H](COC)C(=O)O[C@H]([C@H](O)COC)[C@H](C)/C=C(\C)[C@@]24O[C@H]3[C@@H]1OC(=O)c1cnco1 [Compound 14, 8-O-Oxazole-5′ carbonylbranimycin] | > 64 | > 64 | > 64 | > 64 | > 64 | > 64 | > 64 | > 64 | > 64 | > 64 | > 64 | > 64 | 16 (≈ 27.7 µM) | 1.73 to 17.3 | > 17.3 | – | – | – | – | – | –
COC[C@H]1[C@@H](O)[C@@H]2O[C@@]34/C(C)=C/[C@@H](C)[C@@H]([C@H](O)COC)OC(=O)[C@H](COC)[C@H]3CC[C@@H]2[C@H]4[C@@H]1O [Compound 15, 4,5-Dihydro-branimycin] | > 64 | > 64 | > 64 | > 64 | > 64 | > 64 | > 64 | > 64 | > 64 | > 64 | > 64 | > 64 | 16 (≈ 33 µM) | – | – | – | – | – | – | 2.06 to 20.6 | IC50 (DNA III Polymerase E): > 20.6 µM
COC[C@@H]1[C@@H](O)[C@@H]2[C@H]3CC[C@@H]4[C@@H](COC)C(=O)O[C@H]([C@H](O)COC)[C@H](C)/C=C(\C)[C@@]24O[C@H]3[C@@H]1OC(=O)c1ccc[nH]1 [Compound 16, 4,5-Dihydro-8-O-1H-pyrrole-2′-carbonylbranimycin] | 8 (≈ 13.8 µM) | 8 (≈ 13.8 µM) | 8 | 8 | 4 (≈ 6.92 µM) | 4 (≈ 6.92 µM) | > 64 | > 64 | > 64 | > 64 | > 64 | > 64 | 4 (≈ 6.92 µM) | 0.00173 to 1.73 | > 17.3 | – | – | – | – | – | –
COCC[C@H]1OC(=O)[C@H](COC)[C@H]2C=C[C@H]3[C@H]4O[C@]2(/C(C)=C/[C@H]1C)[C@@H]3[C@H](O)[C@@H](COC)[C@H]4O [Compound 17, 17-Deoxybranimycin] | – | – | – | – | – | > 64 | > 64 | > 64 | > 64 | > 64 | – | > 64 | 8 (≈ 17.1 µM) | – | > 21.4 | > 64 | > 64 | > 64 | > 64 | 0.00214 to 2.14 | MIC (S. aureus Sa4 NCTC 6571; [17]): > 64 µg/mL; MIC (E. coli Ec1 ATCC 25922; [18]): > 64 µg/mL
